A short description of data set [1]: Maximum tolerated dose (MTD) in C57BL/6 mice. The following applies: C57BL/6, mouse, in vivo, ip. As to the method: The MTD was determined by single dose or b.i.d. × 3 intraperitoneal administration through a classical dose escalation design in C57BL/6 mice and defined as a dose level that was tolerated by mice (n = 2–3 mice/group) with a body weight loss of <10% and no death or detectable sickness. […] All animal experiments were approved by the Animal Ethics Committee of the University of Auckland.

The nature of data set [2]: Aqueous solubility of parent compound and sodium salt.
Data set [3] deals with T1, purified recombinant perforin (Mus musculus, UniProt P10820).
T1 sequence (P10820 21-554): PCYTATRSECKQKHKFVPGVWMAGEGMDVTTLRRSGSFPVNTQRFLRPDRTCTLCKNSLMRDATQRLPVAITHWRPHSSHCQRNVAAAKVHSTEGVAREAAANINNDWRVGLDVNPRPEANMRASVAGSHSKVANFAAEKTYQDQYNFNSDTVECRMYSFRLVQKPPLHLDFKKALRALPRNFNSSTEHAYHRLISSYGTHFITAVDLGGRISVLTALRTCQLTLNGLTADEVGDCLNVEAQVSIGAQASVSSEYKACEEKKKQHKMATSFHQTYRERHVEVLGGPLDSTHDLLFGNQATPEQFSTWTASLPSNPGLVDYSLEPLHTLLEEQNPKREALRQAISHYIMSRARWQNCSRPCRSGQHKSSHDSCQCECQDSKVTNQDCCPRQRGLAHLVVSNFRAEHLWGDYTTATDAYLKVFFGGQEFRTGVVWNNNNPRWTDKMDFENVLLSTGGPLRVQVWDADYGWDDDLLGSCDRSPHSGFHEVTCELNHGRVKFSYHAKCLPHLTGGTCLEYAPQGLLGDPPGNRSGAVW
Nature of the data set: cell-based. It counts as cell-based. The following applies: lysis of Jurkat cells by purified recombinant perforin, 51Cr release, 0.1% BSA; average of at least three determinations; read-out: inhibition of Jurkat cell lysis, IC50.
Protocol: The ability of the compounds to inhibit the lysis of nucleated (Jurkat T lymphoma) cells in the presence of 0.1% BSA was measured by release of ^51Cr label. Jurkat target cells were labeled by incubation in medium with 100 μCi ^51Cr for 1 h. The cells were then washed three times to remove unincorporated isotope and resuspended at 1 × 10^5 cells per milliliter in RPMI buffer supplemented with 0.1% BSA. […] Each data point was performed in triplicate, and an IC50 was calculated from the range of concentrations described above.

The nature of data set [4]: Plasma pharmacokinetics in male CD-1 mice. The format is in vivo, mouse. The following applies: 5 mg/kg iv; for AUC0–∞ / Cmax / T1/2: plasma. As to the method: Blood was collected by cardiac puncture at 5 and 30 min and 1, 2, 4, and 6 h postdose in ice-cold K2-EDTA tubes. Plasma samples were separated by centrifuging at 4000g for 8 min and stored at −80 °C until analysis. Frozen plasma was thawed on wet ice on the day of analysis. […] A Zorbax SB-C18, 50 mm × 2.1 mm 5 μm column was used at a 0.5 mL/min flow rate, and elution was with a gradient of organic phase (A), acetonitrile in water (80:20 v/v) containing 0.01% formic acid and aqueous phase (B), water containing 0.01% formic acid. LC–MS/MS analysis was carried out using multiple reaction monitoring. […] Plasma samples from 5 min, 30 min, and 1 h were diluted with control mouse plasma (1:20 for 5 min, 1:10 for 30 min and 1 h samples) to fit within this range. The resultant concentration vs time data were fitted (using Phoenix WinNonlin 6.2; Pharsight Corporation, St. Louis, MO) to calculate pharmacokinetic parameters including half-life (T1/2), maximum concentration (Cmax), area under the curve (AUC0–∞), volume of distribution (V), and clearance (Cl).

Data set [5] deals with T2, perforin produced by an intact NK cell line (KHYG-1) (Homo sapiens, UniProt P14222).
T2 construct: the perforin is delivered by a functional NK cell; endogenous in cells; host or cells: KHYG-1 NK cells (K562 target cells)
T2 sequence (P14222 22-555): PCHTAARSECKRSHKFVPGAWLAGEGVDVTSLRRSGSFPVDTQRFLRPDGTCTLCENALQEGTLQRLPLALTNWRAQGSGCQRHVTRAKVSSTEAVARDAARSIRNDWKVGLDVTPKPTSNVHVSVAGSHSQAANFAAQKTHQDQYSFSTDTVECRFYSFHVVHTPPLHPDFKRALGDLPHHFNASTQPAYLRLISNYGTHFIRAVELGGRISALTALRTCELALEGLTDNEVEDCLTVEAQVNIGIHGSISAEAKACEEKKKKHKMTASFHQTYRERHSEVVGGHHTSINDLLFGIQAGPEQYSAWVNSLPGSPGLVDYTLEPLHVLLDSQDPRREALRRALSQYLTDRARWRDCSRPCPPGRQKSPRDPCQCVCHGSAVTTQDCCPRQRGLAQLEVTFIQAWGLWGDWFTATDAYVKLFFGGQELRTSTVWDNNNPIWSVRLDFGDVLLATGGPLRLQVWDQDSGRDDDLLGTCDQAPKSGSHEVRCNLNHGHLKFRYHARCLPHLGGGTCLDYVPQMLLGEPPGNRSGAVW
Nature of the data set: KHYG-1 cytotoxicity assay: perforin-induced lysis of K562 target cells co-incubated with KHYG-1 NK cells. The format is cell-based. The following applies: for inhibition at 5 µM: KHYG-1. As to the method:
KHYG-1 cells were washed and resuspended in RPMI + 0.1% BSA at 4 × 10^5 cells/mL, and an amount of 50 μL of KHYG-1 cells was dispensed to each well of a 96-well V-bottom plate. RPMI (50 μL) + 0.1% BSA or 10% (final concentration) of serum was added to each well. Then test compounds were added to KHYG-1 cells at various concentrations up to 20 μM and incubated at room temperature for 20 min. 1 × 10^6 K562 target cells were labeled with 75 μCi ^51Cr in 200 μL of RPMI for 90 min at 37 °C. Cells were washed as described above and resuspended in 5 mL of RPMI + 0.1% BSA. […] The percentage of specific cytotoxicity was calculated using the following formula: [drawing 4] and expressed as the mean of triplicate assays ± standard error of the mean.

Data set [6] is described as follows: Solubility in SPR running buffer. The format is physicochemical. Particulars: HEPES buffered saline running buffer with 5% DMSO; sodium salts, HEPES running buffer containing 5% DMSO. On the procedure:
Binding experiments with surface immobilized wild-type perforin monomers on a S-series CM5 sensor chip (GE Healthcare Life Sciences) were carried out using a Biacore T200 SPR machine (GE Healthcare Life Sciences). […] The initial and running buffers were made from a 10× stock solution of HEPES buffered saline (HBS). 10× HBS (50 mL) was diluted to 500 mL with water and filtered through a 0.22 μm filter (initial buffer). This initial buffer (380 mL) was added to DMSO (20 mL) to prepare the 5% DMSO running buffer. Stock solutions (2.5 mM) of compound were prepared in 100% DMSO. […] A solvent correction was run before and after the injections to account for differences in DMSO concentrations between buffer and analyte solutions.

Setting [7] is: intraperitoneal, twice daily over 3 days, read-out: MTD, multiple dosing.
The mark [8] stands for this setting: single intraperitoneal dose, mice, read-out: MTD, single dose.

From paper PMC3865801 (Journal of Medicinal Chemistry, 2013) come the findings set out here.

Read-outs that look alike come from different tables or passages of the source.

In general, MTD refers to the highest dose tested that stayed within the study's limit of toxicity. For orientation: solubility means how much of the substance goes into solution per volume. What is called IC50 is the concentration at which inhibition is half-maximal. Usually Cmax stands for the peak of the concentration-time curve. Broadly, the inhibition is the relative decrease from the control value, in per cent. Turning to `CC1c2cc(-c3ccc(/C=C4/NC(=S)NC4=O)s3)ccc2C(=O)N1C` (centres unmarked) [compound 135, (E,Z)-2,3-Dimethyl-5-(5-((5-oxo-2-thioxoimidazolidin-4-ylidene)methyl)thiophen-2-yl)isoindolin-1-one], in data set [1] (setting [7]), the MTD at 96 h came to 60 mg/kg. Further, in data set [1] (setting [8]), the MTD at 96 h stood at 80 mg/kg. Besides, in data set [2] (aqueous medium (not further specified)), the solubility was found to be 1.32 µg/mL. The IC50 in data set [3] turned out to be 3.21 µM. Besides, in data set [4], the “Cl (clearance)” value amounted to 4346 mL h^–1 kg^–1, the “V (volume of distribution)” value amounted to 1.478 L/kg, the “AUC0–∞” value turned out to be 1151 ng·h/mL and the Cmax was determined as 4488 ng/mL. The T1/2 in data set [4] amounted to 1.15 h. In data set [5] (20 μM, 10% mouse serum, K562 targets, ± SEM, read-out: KHYG-1 inhibition (% at 20 μM), 10% serum), the inhibition at 20 µM was determined as 67 ± 6.1%. For the same molecule, in data set [5] (20 μM, no serum, K562 targets, vs untreated control, ± SEM, read-out: KHYG-1 inhibition (% at 20 μM), no serum), the inhibition at 20 µM was determined as 90 ± 4%. For the same molecule, the solubility in data set [6] is at most 2.5 µM.

For the molecule `O=C1NC(=S)N/C1=C/c1ccc(-c2ccc3c(c2)CCNC3=O)s1` [compound 167], the maximum tolerated dose (MTD) at 96 h stood at 40 mg/kg in data set [1] (setting [7]) and 60 mg/kg in data set [1] (setting [8]). Moreover, the values for the solubility in data set [2] and in data set [6] were 0.53 µg/mL and at most 2.5 µM, respectively. For the same molecule, the IC50 in data set [3] came out at 1.14 µM. In addition, in data set [4], the “Cl (clearance)” value stood at 5237 mL h^–1 kg^–1. In addition, the “V (volume of distribution)” value in data set [4] worked out at 2.75 L/kg. In addition, in data set [4], the “AUC0–∞” value worked out at 955 ng·h/mL. This molecule also came in with a Cmax in data set [4] of 4513 ng/mL. This molecule came in with a T1/2 in data set [4] of 1.30 h. In addition, the inhibition at 5 µM was found to be 34 ± 6.4% in data set [5] (10% mouse serum, read-out: KHYG-1 inhibition, 10% serum) and 51 ± 4.2% in data set [5] (no serum, read-out: KHYG-1 inhibition, no serum). The inhibition at 20 µM in data set [5] (read-out: KHYG-1 inhibition (% at 20 μM), 10% serum) worked out at 81 ± 5.3%; in data set [5] (read-out: KHYG-1 inhibition (% at 20 μM), no serum), 83 ± 4.6%.
